Key:
platelets [1] = experiment: Collagen-induced in vitro platelet aggregation (rabbit PRP, transmittance); format: cell-based; conditions: Oryctolagus cuniculus; collagen 0.2 μg/ml, rabbit platelet rich plasma; read-out: 50% Inhibition Point for Platelet Aggregation, IC50
Experimental: Collagen-induced in vitro Platelet Aggregation
It was studied whether the compounds of the present invention would inhibit platelet aggregation induced by collagen.
These compounds were each diluted with physiological saline to end concentrations of 1×10^−7M, 3×10^−7M, 1×10^−6M, 3×10^−6M, 1×10^−5M, 3×10^−5M and 1×10^−4M.
Indomethacin was used as a positive control. Indomethacin was dissolved in methanol, and then diluted with physiological saline to end concentrations of 1×10^−6M, 3×10^−6M and 1×10^−5M.
Physiological saline was used as a negative control.
The tube was centrifuged at 900 rpm for 10 minutes at room temperature to separate the supernatant (PRP, platelet rich plasma fraction). The residue was further centrifuged for 15 minutes at 2,500 rpm to obtain the supernatant (PPP, platelet poor plasma fraction).
PPP (platelet poor plasma fraction) was placed in a cuvette, and the cuvette was mounted in a 37° C. incubator for PPP of an aggregometer (Hematracer 240 12ch, manufactured by MCM). Then, 200 μl of PRP (platelet rich plasma fraction) was added into a cuvette, and the cuvette was mounted in a reactor for PRP. With stirring by a magnetic stirrer, the transmittance of PPP was corrected to T650 nm=100%, and the transmittance of PRP was corrected to T650 nm=0%, by automatic adjustment for 30 seconds.
The study substance (20 μl) at a predetermined concentration was added into the cuvette and, 30 seconds later, 20 μl (end concentration 0.2 μg/ml) of collagen (produced by MCM) was added. Subsequent changes in the transmittance were recorded for 5 minutes. When the platelets are aggregated, the transmittance increases. When aggregation peaked, the transmittance T at maximum aggregation was compared with the transmittance T0 of the negative control, and the aggregation inhibition rate was expressed as percentage using the following equation: Aggregation inhibition rate=(1−T/T0)×100
From an aggregation inhibition curve obtained, a regression equation was derived by approximation of the linear type.

platelets [2] = experiment: Ex vivo platelet aggregation after intravenous administration; format: in vivo, rat; conditions: 0.1 mg/kg intravenous, blood 1 hour after administration, collagen 1 to 6 μg/ml
Experimental: The blood was withdrawn at three points in time, 10 minutes, 30 minutes and 1 hour after administration. Platelets were prepared from the blood samples taken, and they were used to study the aggregation rates when platelet aggregation was induced by 0.3 to 6 μg/ml of collagen. In a control group, the aggregation rates after administration of a solvent (physiological saline) were measured.
It was studied whether the compound of the present invention would suppress ex vivo platelet aggregation dose-dependently.
The blood was withdrawn 60 minutes after administration, and platelets were prepared from the blood. Platelet aggregation was induced by 4 to 7 μg/ml of collagen using the platelets.
The blood was withdrawn 1 hour after intravenous administration, and platelets were prepared from the blood. Platelet aggregation was induced by 1 to 6 μg/ml of collagen using the platelets.

platelets [3] = experiment: In vitro platelet aggregation by various inducers, guinea pig platelets; format: cell-based; conditions: Cavia porcellus, inducer collagen (0.1 to 1 μg/ml), guinea pig platelets, read-out: 50% inhibition point, IC50, for in vitro platelet aggregation
Source text: (§1) Next, the suppression of platelet aggregation by the compounds of the present invention was studied in the same manner as described above with the use of not only collagen, but also arachidonic acid, ADP, thrombin, serotonin, epinephrine and U46619 (pseudo-thromboxane A2 substance) as inducers.
(§2) As platelets, platelets prepared from rats and guinea pigs as well as rabbits were also used.
(§3) Collagen and ADP were purchased from MCM, and used in accordance with the method of preparation described in the manuals attached to the purchased products. Serotonin, epinephrine and thrombin were purchased from Sigma, and used as solutions in physiological saline for injection (Otsuka Pharmaceutical Factory). Arachidonic acid was purchased from Cayman, and dispersed in physiological saline for injection (Otsuka Pharmaceutical Factory) with the use of an immersion type ultrasonic oscillator (US150, NIPPON SEIKI, tip end diameter ca. 3.5 mm). U46619 (pseudo-thromboxane substance) was purchased from FUNAKOSHI, and dissolved in physiological saline for injection (Otsuka Pharmaceutical Factory) when used.
(§4) Collagen (0.1 to 1 μg/ml), arachidonic acid (1 mM), ADP (1 μM), thrombin (1 U/ml), serotonin (100 μM), epinephrine (100 to 200 μM), and U46619 (3 μM) were used.
(§5) Indomethacin was used as a positive control for measuring the suppression of platelet aggregation induced by collagen.

platelets [4] = experiment: In vitro platelet aggregation by various inducers, rabbit platelets; format: cell-based; conditions: Oryctolagus cuniculus, Platelet; inducer collagen (0.1 to 1 μg/ml), rabbit platelets; read-out: 50% inhibition point, IC50, for in vitro platelet aggregation
Source text: as §1, §2, §3, §4, §5

platelets [5] = experiment: In vitro platelet aggregation by various inducers, rat platelets; format: cell-based; conditions: inducer collagen (0.1 to 1 μg/ml), rat platelets, read-out: 50% inhibition point, IC50, for in vitro platelet aggregation
Source text: as §1, §2, §3, §4, §5

[6] = tested on: neutrophils and vascular endothelial cells; experiment: Pseudo-blood vessel in vitro inflammation model (TNFα, neutrophil migration through endothelial cell layer); format: cell-based, bovine; conditions: 30, 3 or 0.3 μM, TNFα 50 ng/ml
Experimental: A layer of bovine endothelial cells was adhered to the bottom surface of the membrane, and cultured for 80 minutes at 37° C. in 5% CO2. Then, a suspension of fluorescence-labeled neutrophils was added to the upper chamber of the transwell. Simultaneously, TNFα was suspended in the cell suspension in the upper chamber to an end concentration of 50, 25 or 17 ng/ml.
That is, in the above model, the phenomena that neutrophils pass from the upper chamber through the vascular endothelial cell layer into the lower chamber, and neutrophils adhere to the endothelial cell layer mimic a state where in response to TNFα within the blood vessel, neutrophils migrate from within the blood vessel to the site of inflammation.
In the same manner as described above, the number of neutrophils passing from the upper chamber through the vascular endothelial cell layer into the lower chamber, and the number of neutrophils adhering to the endothelial cell layer were measured. Based on these numbers, the neutrophil migration rate (%) was calculated. The neutrophil migration rate was expressed as the relative value (%) of the number of the migrating neutrophils in the drug treatment group with respect to the number of the migrating neutrophils in the negative control group (physiological saline).

CC/C=C\C/C=C\C/C=C\CCCCCCCC(=O)NCCC1CCCN1C (stereo not drawn) [Compound 7, (9Z,12Z,15Z)-N-[2-(1-methylpyrrolidin-2-yl)ethyl]linolenamide]
IC50 (platelets [1]): 3.7 µM

CCCCCCCCCCCCCC(=O)NCCC1CCCN1C (stereo not drawn) [Compound 4, N-[2-(1-methylpyrrolidin-2-yl)ethyl]myristamide]
IC50 (platelets [1]): 42 µM

CCCCCCCC/C=C\CCCCCCCC(=O)NCCC1CCCN1C (stereo not drawn) [Compound 5, 9Z-N-[2-(1-methylpyrrolidin-2-yl)ethyl]oleamide]
IC50 (platelets [1]): 5.6 µM
ex vivo platelet aggregation (in words) (platelets [2]): suppress platelet aggregation

CCCCC/C=C\C/C=C\CCCCCCCC(=O)NCCC1CCCN1C (stereo not drawn) [Compound 6, (9Z,12Z)-N-[2-(1-methylpyrrolidin-2-yl)ethyl]linoleamide]
IC50 (platelets [1]): 2.1 µM

COc1ccc2c(c1)c(CC(=O)O)c(C)n2C(=O)c1ccc(Cl)cc1 [Indomethacin, reference compound]
IC50 (platelets [3]): 29 µM
IC50 (platelets [4]): 4 µM
IC50 (platelets [5]): 18 µM
IC50 (platelets [1]): 5 µM

CCCCCCCC(=O)NCCC1CCCN1C (stereo not drawn) [Compound 3, N-[2-(1-methylpyrrolidin-2-yl)ethyl]caprylamide]
IC50 (platelets [1]): 8.1 µM

CC/C=C\C/C=C\C/C=C\C/C=C\C/C=C\C/C=C\CCC(=O)NCCCC1CCCN1C (stereo not drawn) [Compound 11, (4Z,7Z,10Z,13Z,16Z,19Z)-N-[3-(1-methylpyrrolidin-2-yl)propyl]docosahexaenoamide]
IC50 (platelets [1]): 4.2 µM

CC/C=C\C/C=C\C/C=C\C/C=C\C/C=C\C/C=C\CCC(=O)NCC1CCCN1C (stereo not drawn) [Compound 9, (4Z,7Z,10Z,13Z,16Z,19Z)-N-[(1-methylpyrrolidin-2-yl)methyl]docosahexaenoamide]
IC50 (platelets [1]): 1.5 µM

CC/C=C\C/C=C\C/C=C\C/C=C\C/C=C\C/C=C\CCC(=O)NN1CCN(C)CC1 [Compound 1, (4Z,7Z,10Z,13Z,16Z,19Z)-N-(4-methylpiperazin-1-yl)docosahexaenoamide]
neutrophil passage through vascular endothelial cell layer (in words) [6]: suppressed neutrophil passage dose-dependently
IC50 (platelets [1]): 7.9 µM

CC/C=C\C/C=C\C/C=C\C/C=C\C/C=C\CCCC(=O)NCCC1CCCN1C (stereo not drawn) [Compound 8, (5Z,8Z,11Z,14Z,17Z)-N-[2-(1-methylpyrrolidin-2-yl)ethyl]eicosapentaenoamide]
IC50 (platelets [1]): 3.7 µM

From patent publication US6949553B2, “Aliphatic compounds, their synthesis method, and utilization of the same” (Maruha Corporation, priority 2001, dated 2005)
